Measured values reported in PMC4621027, “Hydroxyethylamine Based Phthalimides as New Class of Plasmepsin Hits: Design, Synthesis and Antimalarial Evaluation” (PLoS ONE, 2015).
“Also recorded” adds a separate entry of the source.

Assays:
plasmepsin 2 = target: T1, plasmepsin 2 (Plasmodium falciparum, UniProt P46925); assay: Inhibition of plasmepsin 2, chromogenic substrate cleavage assay; type: biochemical; conditions: tested at 10 to 50 μM
T1 construct: preincubated at the assay pH for 3 minutes to allow conversion from the proenzyme to the mature enzyme form; made in house
T1 sequence (P46925 125-453): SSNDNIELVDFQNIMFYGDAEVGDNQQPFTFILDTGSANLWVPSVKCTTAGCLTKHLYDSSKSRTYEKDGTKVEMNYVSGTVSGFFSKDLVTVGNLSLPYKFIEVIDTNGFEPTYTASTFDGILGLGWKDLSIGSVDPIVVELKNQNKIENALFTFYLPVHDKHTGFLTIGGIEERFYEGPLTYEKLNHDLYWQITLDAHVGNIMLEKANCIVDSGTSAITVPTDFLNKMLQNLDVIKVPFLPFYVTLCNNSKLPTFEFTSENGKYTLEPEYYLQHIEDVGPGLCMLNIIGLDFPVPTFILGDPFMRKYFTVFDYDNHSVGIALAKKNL
Procedure: (§1) Synthetic compounds were dissolved in DMSO to make stock solutions at concentrations around 100 μM. Dilutions from these stocks were made to obtain solutions to use for studying inhibition of the plasmepsins 2 and 4 from P. falciparum. Assays of enzymatic activity were typically done using 50 micromolar substrate and 50 nanomolar enzyme at pH 4.5. The protein samples were preincubated at the assay pH for 3 minutes to allow conversion from the proenzyme to the mature enzyme form, then immediately mixed with inhibitor solutions and incubated for a further 5 minutes to permit the enzyme-inhibitor complex to form. Following this, the samples were mixed with samples of the substrate to yield a 50 μM substrate concentration in the final assay solution and immediately placed in a recording spectrophotometer to follow the reaction. The cleavage of the chromogenic substrate yields a shift in absorbance that can be quantified by the decrease in absorbance at 300 nm. Compounds were mixed with the enzymes at concentrations ranging from 10 to 50 μM range and the effect on enzyme activity studied in duplicate assays.
(§2) A second inhibitor concentration was chosen that would yield approximately 30–35% inhibition and a third inhibitor concentration was chosen to yield approximately 65–70% inhibition. The three resulting curves of initial velocity versus substrate concentration were fit simultaneously to the competitive inhibition scheme; this yields values of Vmax, Km, and Ki.
(§3) Plasmepsins, a family of aspartic proteases of malaria parasite, are known to participate in a wide variety of cellular processes essential for parasite survival. […] Similarly, plasmepsin 4 from P. falciparum can be prepared and activated. Catalytic activity of the plasmepsins can be studied by following the change in absorbance at 300 nm as cleavage occur between a Phe and a nitroPhe in the synthetic substrate, Lys-Pro-Ile-Glu-Phe-NO2Phe-Arg-Leu. The compounds listed in Tables 1, 2 and 3 were assayed for inhibition by preincubating with differnt concentrations of the compound with equal aliquots of either plasmepsin 2 or 4 followed by mixing with the assay substrate.

plasmepsin 4 = target: T2, plasmepsin 4 (Plasmodium falciparum, UniProt Q8IM16); assay: Inhibition of plasmepsin 4, chromogenic substrate cleavage assay; type: biochemical; conditions: tested at 10 to 50 μM
T2 construct: preincubated at the assay pH for 3 minutes to allow conversion from the proenzyme to the mature enzyme form; made in house
T2 sequence (Q8IM16 122-449): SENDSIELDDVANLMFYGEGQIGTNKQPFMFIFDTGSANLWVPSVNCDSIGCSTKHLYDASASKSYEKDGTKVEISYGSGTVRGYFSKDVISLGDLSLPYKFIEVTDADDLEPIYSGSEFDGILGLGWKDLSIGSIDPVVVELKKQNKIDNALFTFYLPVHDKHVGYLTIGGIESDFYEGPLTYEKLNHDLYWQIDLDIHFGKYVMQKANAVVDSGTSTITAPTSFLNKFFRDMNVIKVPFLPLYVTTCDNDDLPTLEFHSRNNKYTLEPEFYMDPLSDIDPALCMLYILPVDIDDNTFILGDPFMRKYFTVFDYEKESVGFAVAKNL
Procedure: as §1, §2, §3

P. falciparum 3D7 = assay: SYBR green I-based fluorescence parasite growth assay, CQ sensitive strain; type: cell-based, Plasmodium falciparum; conditions: Plasmodium falciparum; CQ sensitive strain 3D7; 48 h incubation; read-out: IC50 values ± SE, growth of P. falciparum (3D7)
Procedure: (§4) For compound screening, SYBR green I-based fluorescence assay was setup as described in literature. Sorbitol synchronized parasites were incubated under normal culture conditions at 2% hematocrit and 1% parasitemia in the absence or presence of increasing concentrations of the compounds. Chloroquine (CQ) was used as positive control, while 0.4% DMSO was used as the negative control.
(§5) We have studied the antimalarial effect of all the listed molecules in […] culture conditions in order to identify a putative lead structure for pharmacological applications.

[1] = tested on: CQ resistant strain (7GB) of P. falciparum; assay: Antiplasmodial activity against CQ resistant strain; type: cell-based; conditions: Plasmodium falciparum; values in brackets; 48 h incubation; read-out: IC50 values ± SE, CQ resistant strain (7GB) (converted)
Procedure: as §4, §5

MCF-7 cell line = assay: MTT-colorimetric cytotoxicity assay; type: cell-based; conditions: 100, 25 and 6.25 μg mL^-1
Procedure: Phthalimides were serially diluted in DMSO in a final concentration of 100, 25 and 6.25 μg mL^-1 and evaluated for their % cytotoxicity by using MTT-colorimetric assay on MCF-7 cell line. Cell lines were maintained in RPMI-1640 (Hi-Media, Mumbai) medium supplemented with heat inactivated FCS (10% v/v) and 100 U/mL of streptomycin and were cultured in a humidified 5% CO2 atmosphere at 37°C. 100 μL (~2×10^5) of cells were seeded into wells (per well) on a 96-well plate (Nunc, Maxi Sorp) and incubated for 16 h for adherence. After 16 h, media was aspirated from the wells and the cells were washed with RPMI-1640 without FCS. 75 μL of each compound and control was added to separate wells containing cell lines and incubated at 37°C in humidified 5% CO2 atmosphere for 4 h. After 4 h, media containing the compounds was replaced with 200 μL of normal RPMI-1640 and cells were further incubated for 48 h under same conditions. After 48 h media was replaced by 200 μL of MTT (3-(4, 5-dimethylthiazol-2-yl)-2, 5-diphenyltetrazolium bromide, 0.5 mg/mL of RPMI-1640) and further incubated for 2 h. The formazan crystals were formed and suspended in 100 μL iso-propanol containing 0.06 M HCl and 0.5% SDS. Aliquots were drawn from each well and colour intensity was measured spectrophotometrically in an ELISA plate reader (Biotek, ELx800) at 540 nm. Untreated cells were taken as control with 100% viability and cells without addition of MTT were used as blank. The relative cell viability (%) compared to control cells was calculated by [abs] sample/ [abs] control × 100.

human erythrocytes = assay: In vitro hemolytic activity; type: cell-based; conditions: 3.125 to 100 μg/mL, 37°C, 1 h
Procedure: In vitro hemolytic activity of all synthesized compounds was performed as per reported protocol with slight modifications. In brief, human erythrocytes were collected from Rotary Blood Bank (New Delhi, India) and suspended in phosphate buffer saline (PBS). The suspension (2% hemotocrit) was incubated with different concentrations (3.125 to 100 μg/mL) of the entire compound series at 37°C for 1 h. After 1 h, erythrocytes were pelleted at 3000 g for 10 min (Remi, R-8C/BL) at 4°C. The supernatant was collected and OD450 was determined spectrophotometrically (Biotek, ELx800 UV spectrophotometer) using PBS as a negative control and Triton X-100 for completely lysing the cells. The percent hemolysis was calculated using the following formula: Percent hemolysis = […]. The percent hemolysis was plotted against concentration of compounds for determining the dose cytotoxic to erythrocytes.

[2] = tested on: P. falciparum developmental stages (asexual); assay: Effect on P. falciparum developmental stages, Giemsa-stained smears; type: cell-based, Plasmodium falciparum; conditions: 5 μM
Procedure: Further, in order to assess the effect of potent molecule 5e on the parasite developmental stages (asexual), we treated tightly synchronized ring-stage parasite cultures with 5e at 5 μM concentration and counted the parasites at different developmental stages (rings, trophozoites and schizonts) in Giemsa-stained smears at three time points (36, 44, and 52 h after treatment). The control (untreated) parasite progressed through the first cell cycle (0–48 h), increased in size and density, developed into trophozoites and schizonts and subsequently formed viable merozoites. These merozoites were able to invade fresh RBCs and form new ring-stage parasites. (Fig 4).

- inhibition of plasmepsin 2 (in words) (plasmepsin 2): did not inhibit
- inhibition of plasmepsin 4 (in words) (plasmepsin 4): did not inhibit
- IC50 (P. falciparum 3D7): 1.16 ± 0.04 µM
- IC50 [1]: 2.99 µM
Structure (SMILES): CC(C)(C)OC(=O)N[C@H](Cc1ccccc1)[C@@H](O)CN1CCC(N2CCCCC2)CC1 [Compound 5e]
- cytotoxic effect on MCF7 cell line (in words) (MCF-7 cell line): low cytotoxic effect; also recorded: less toxic
- hemolysis of human erythrocytes (in words) (human erythrocytes): lower hemolysis
- total parasitemia compared with the control set ([2]; at 52 h): lower total parasitemia
- effect on parasite developmental stages ([2]; synchronized ring-stage cultures, 36, 44 and 52 h after treatment): developmental arrest in the transition from early to late schizont
